Seven molecules from ChEMBL document CHEMBL2046317, “A-ring dihalogenation increases the cellular activity of combretastatin-templated tetrazoles” (ACS Med Chem Lett, 2012) can be followed below.

Assay [1] concerns HUVEC. Nature of the assay: Antivascular activity against HUVEC after 24 hrs by xCELLigence assays. The class given is functional, cell-based. The note with it: Homo sapiens.
Assay [2] has as its system MRC5. Nature of the assay: Growth inhibition of human MRC5 cells after 48 hrs by SRB assay. The class given is cell-based. The note with it: MRC5, 48 h. A general note: Sulforhodamine B stains cellular protein and so reports cell mass.
Assay [3] has as its system SK-OV-3. The assay can be described thus: Cell cycle arrest in human SKOV3 cells assessed as accumulation at G2/M phase at 5 nM by FACS analysis. The class given is functional. On the technique in general: In flow cytometry, cells or beads pass a laser one at a time.
Assay [4] has as its system MCF7. Nature of the assay: Growth inhibition of human MCF7 cells after 48 hrs by SRB assay. The class given is functional, cell-based. The settings on record: MCF7, 48 h.
The test system of assay [5] is A549. The assay can be described thus: Growth inhibition of human A549 cells after 48 hrs by SRB assay. The settings on record: A549, 48 h. Type of assay: functional, cell-based.
The test system of assay [6] is SK-OV-3. Nature of the assay: Growth inhibition of human SKOV3 cells after 48 hrs by SRB assay. Type of assay: functional, cell-based. The settings on record: SK-OV-3, 48 h.
The subject of assay [7] is DLD-1. The assay can be described thus: Growth inhibition of human DLD1 cells after 48 hrs by SRB assay. The class given is functional, cell-based. The note with it: DLD-1, 48 h.
The subject of assay [8] is PC-3. Nature of the assay: Growth inhibition of human PC3 cells after 48 hrs by SRB assay. Type of assay: functional, cell-based. The settings on record: PC-3, 48 h.
Assay [9] relates to SK-OV-3. The assay can be described thus: Growth inhibition of paclitaxel-resistant human SKOV3 cells after 48 hrs by SRB assay. Type of assay: functional, cell-based. The settings on record: SK-OV-3, 48 h.
The test system of assay [10] is HT-29. Nature of the assay: Growth inhibition of combretastatin-resistant human HT-29 cells after 48 hrs by SRB assay. Type of assay: functional, cell-based. The note with it: HT-29, 48 h.
Assay [11] is filed under the species Bos taurus. The assay can be described thus: Inhibition of purified bovine tubulin polymerization at 5 uM measured 30 secs intervals for 60 mins by spectrophotometer analysis relative to control.
A short description of assay [12]: Inhibition of tubulin polymerization.
The subject of assay [13] is SK-OV-3. The assay can be described thus: Cell cycle arrest in human SKOV3 cells assessed as accumulation at sub-G1 phase at 5 nM by FACS analysis. The class given is functional.

Broadly, the IC50 is the concentration needed to halve the response being measured. Read a low IC50 as greater potency. Take `COc1ccc(-c2nnnn2-c2cc(OC)c(OC)c(OC)c2)cc1O`: the IC50 in [1] came to 13.6 nM; in assay [2], 12 nM; in [4], 21 nM; in [5] it was 22 nM; in assay [6], 9.5 nM; in [7] it was 24 nM. The 50% inhibitory concentration (IC50) in assay [8] was 9 nM; in [9], 11 nM; in assay [10] it was greater than 500 nM. In assay [3], the Activity is 25%. In addition, in [11], the fold change (FC) is 2.9.
For the molecule `COc1ccc(/C=C\c2cc(I)c(OC)c(I)c2)cc1O`, the concentration for half-maximal inhibition (IC50) in [1] stood at 1.9 nM; in assay [6], 5 nM. For the same molecule, the Activity in [3] is recorded as 84%.
In the case of `COc1ccc(-c2nnnn2-c2cc(Br)c(OC)c(Br)c2)cc1O`, the IC50 in assay [1] is 6.6 nM; in [2], 5.7 nM; in [4], 7 nM; in [5], 21 nM; in assay [6] it was 6.1 nM; in assay [7] it was 8.2 nM. In addition, the results for the IC50 in assay [8], in [9] and in assay [10] were 2.9 nM, 5.6 nM and greater than 500 nM, respectively. For the same molecule, the Activity in assay [3] was determined as 40%. In assay [11], this molecule registered a fold change (FC) of 1.5.
`COc1ccc(-c2nnnn2-c2cc(OC)c(OC)c(OC)c2)cc1N` had an IC50 in [12] of 2000 nM.
`COc1ccc(/C=C\c2cc(OC)c(OC)c(OC)c2)cc1O` [COMBRETASTATIN A4]: the IC50 in assay [2] turned out to be 2.8 nM; in assay [4] it was 3 nM; in [5], 7.9 nM; in assay [7], 3.3 nM; in [8], 2.9 nM; in assay [9], 4.2 nM. Further, half-maximal inhibition in [10] (IC50) was put at 538 nM. In addition, the results for the Activity in assay [3] and in assay [13] were 31% and less than 5%, respectively. The fold change (FC) in assay [11] worked out at 3.
As for `COc1ccc(/C=C\c2cc(Br)c(OC)c(Br)c2)cc1O`, the IC50 in assay [1] amounted to 3 nM; in [6] it was 5 nM. Also, the Activity in [3] is reported as 52%.
Consider `COc1ccc(-c2nnnn2-c2cc(I)c(OC)c(I)c2)cc1O`, for which the IC50 in [1] came out at 2.4 nM; in assay [2] it was 2.2 nM; in [4] it was 1.9 nM; in assay [5] it was 2.8 nM; in [6], 2.6 nM; in [7], 2.4 nM. Moreover, the values for the concentration for half-maximal inhibition (IC50) in assay [8], in assay [9] and in [10] were 0.5 nM, 1.4 nM and 513 nM, respectively. Moreover, in assay [3], the Activity is given as 89%. In assay [11], this molecule showed a fold change (FC) of 1.7.
